Molecules are shown by their SMILES. pIC50: −log10 of the molar value.

One data set deals with K-562. Nature of the data set: NCI primary anti-cancer assay (SRB), K-562. Format: cell-based. Conditions: Homo sapiens, K562; 10^−5M; Leukemia K-562; read-out: Growth Inhibition %. On the procedure: (§1) Evaluation of anti-cancer activities on pyrimido[4,5-d]pyrimidine derivatives were performed at the National Cancer Institute (NCI) USA. First the newly synthesized compounds have been evaluated in primary anti-cancer assay at 10^−5M concentration against 60 human tumor cell lines then the active compounds were tested at 5 different concentrations against the same 60 human tumor cell lines. The biological data for the newly synthesized compounds are compiled in table 2
(§2) The cytotoxic activity was measured in vitro for the newly synthesized compounds using the SulfoRhodamine-B stain (SRB) assay using the method of Skehan. Cells were plated in 96-multiwell microtiter plate (10^4 cells/well) for 24 h before treatment with the compound(s) to allow attachment of cell to the wall of the plate. Tested compounds were dissolved in DMSO and diluted with saline to the appropriate volume. Triplicate wells were prepared for each individual dose. Monolayer cells were incubated with the compound(s) for 48 h at 37 °C and in atmosphere of 5% CO2. After 48 h, cells were fixed, washed, and stained for 30 min with 0.4% (wt/vol) with SRB dissolved in 1% acetic acid. Unbound dye was removed by four washes with 1% acetic acid, and attached stain was recovered with Tris-EDTA buffer. Color intensity was measured in an ELISA reader. The relation between surviving fraction and drug concentration is plotted to get the survival curve for tumor cell line after the specified time.

The next data set deals with T1, CDK2/CyclinA (Homo sapiens, UniProt P24941).
T1 construct: hexa-histidine (N); made in house; host or cells: sf21 insect cells (baculovirus)
Nature of the data set: CDK2/cyclinA enzymatic activity inhibition assay (32P-ATP, histone H1). The class given is biochemical. Conditions: mean of at least two independent experiments.

The test system of another data set is MDA-MB-231/ATCC. In words: NCI primary anti-cancer assay (SRB), MDA-MB-231/ATCC. Format: cell-based. To be noted: Homo sapiens; 10^−5M; Breast Cancer MDA-MB-231/ATCC; read-out: Growth Inhibition %. On the procedure:
as §1, §2

For data set [1], the target named is T2, human EGFR tyrosine kinase domain (Homo sapiens, UniProt P00533).
T2 construct: C-terminal human EGFR tyrosine kinase domain
In words: EGFR tyrosine kinase inhibition assay. Format: biochemical. To be noted: mean of at least two independent experiments.

The next data set has as its target CDK4/CyclinD (Homo sapiens, UniProt P11802). In words: CDK4/CyclinD inhibition assay. Conditions: mean of at least two independent experiments. The class given is biochemical.
The test system of another data set is UACC-257. Nature of the data set: NCI primary anti-cancer assay (SRB), UACC-257. Format: cell-based. To be noted: Homo sapiens; 10^−5M; Melanoma UACC-257; read-out: Growth Inhibition %. On the procedure:
as §1, §2

For a further data set, the system named is RXF 393. In words: NCI primary anti-cancer assay (SRB), RXF 393. Conditions: Renal Cancer RXF 393; for inhibition at 10 µM: Homo sapiens, RXF 393, 10^−5M, read-out: Growth Inhibition %. Format: cell-based, human. The method, then:
as §1, §2

The subject of another data set is RPMI-8226. In words: NCI primary anti-cancer assay (SRB), RPMI-8226. The class given is cell-based. To be noted: Homo sapiens; 10^−5M; Leukemia RPMI-8226; read-out: Growth Inhibition %. The method, then: as §1, §2
The test system of another data set is HL-60(TB). In words: NCI primary anti-cancer assay (SRB), HL-60(TB). To be noted: Homo sapiens; 10^−5M; Leukemia HL-60(TB); read-out: Growth Inhibition %. Format: cell-based. The method, then:
as §1, §2

The next data set concerns SF-539. In words: NCI primary anti-cancer assay (SRB), SF-539. Format: cell-based. Conditions: Homo sapiens; 10^−5M; CNS Cancer SF-539; read-out: Growth Inhibition %. The method, then: as §1, §2
In the next data set the test system is IGROV1. Nature of the data set: NCI primary anti-cancer assay (SRB), IGROV1. Format: cell-based. Conditions: Homo sapiens, IGROV-1; 10^−5M; Ovarian Cancer IGROV1; read-out: Growth Inhibition %. The method, then: as §1, §2
In a further data set the test system is A549/ATCC. In words: NCI primary anti-cancer assay (SRB), A549/ATCC. To be noted: Homo sapiens; 10^−5M; Non-Small Cell Lung Cancer A549/ATCC; read-out: Growth Inhibition %. The class given is cell-based. The method, then: as §1, §2
A further data set deals with HOP-92. Nature of the data set: NCI primary anti-cancer assay (SRB), HOP-92. The class given is cell-based. To be noted: Homo sapiens; 10^−5M; Non-Small Cell Lung Cancer HOP-92; read-out: Growth Inhibition %. The method, then:
as §1, §2

The test system of the next data set is MOLT-4. In words: NCI primary anti-cancer assay (SRB), MOLT-4. Format: cell-based. To be noted: Homo sapiens; 10^−5M; Leukemia MOLT-4; read-out: Growth Inhibition %. The method, then: as §1, §2
The test system of another data set is T-47D. In words: NCI primary anti-cancer assay (SRB), T-47D. Format: cell-based. Conditions: Homo sapiens, T47D; 10^−5M; Breast Cancer T-47D; read-out: Growth Inhibition %. On the procedure: as §1, §2
In a further data set the test system is UO-31. In words: NCI primary anti-cancer assay (SRB), UO-31. The class given is cell-based. Conditions: Homo sapiens; 10^−5M; Renal Cancer UO-31; read-out: Growth Inhibition %. The method, then: as §1, §2
A further data set deals with OVCAR-8. Nature of the data set: NCI primary anti-cancer assay (SRB), OVCAR-8. The class given is cell-based. Conditions: Homo sapiens; 10^−5M; Ovarian Cancer OVCAR-8; read-out: Growth Inhibition %. On the procedure:
as §1, §2

T2 sequence (P00533 712-979 limits assumed): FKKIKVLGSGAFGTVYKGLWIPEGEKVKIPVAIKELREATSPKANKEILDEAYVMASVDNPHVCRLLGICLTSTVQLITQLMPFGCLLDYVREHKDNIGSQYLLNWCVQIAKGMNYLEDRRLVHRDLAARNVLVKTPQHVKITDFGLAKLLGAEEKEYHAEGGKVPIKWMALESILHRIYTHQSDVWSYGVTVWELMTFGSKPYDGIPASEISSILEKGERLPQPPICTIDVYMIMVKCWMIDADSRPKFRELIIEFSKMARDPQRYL
Sequence of CDK4/CyclinD (P11802 whole entry, species assumed): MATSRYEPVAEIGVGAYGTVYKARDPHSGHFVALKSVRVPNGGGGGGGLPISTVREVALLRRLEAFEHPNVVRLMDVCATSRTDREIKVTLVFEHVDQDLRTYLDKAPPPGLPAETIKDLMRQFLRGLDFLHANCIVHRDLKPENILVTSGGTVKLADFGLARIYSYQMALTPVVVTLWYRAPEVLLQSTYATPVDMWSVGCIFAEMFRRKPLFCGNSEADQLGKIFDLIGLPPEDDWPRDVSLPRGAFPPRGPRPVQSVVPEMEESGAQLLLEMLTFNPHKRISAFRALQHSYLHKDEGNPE
Sequence of CDK4/CyclinD (P24385 whole entry partner, species assumed): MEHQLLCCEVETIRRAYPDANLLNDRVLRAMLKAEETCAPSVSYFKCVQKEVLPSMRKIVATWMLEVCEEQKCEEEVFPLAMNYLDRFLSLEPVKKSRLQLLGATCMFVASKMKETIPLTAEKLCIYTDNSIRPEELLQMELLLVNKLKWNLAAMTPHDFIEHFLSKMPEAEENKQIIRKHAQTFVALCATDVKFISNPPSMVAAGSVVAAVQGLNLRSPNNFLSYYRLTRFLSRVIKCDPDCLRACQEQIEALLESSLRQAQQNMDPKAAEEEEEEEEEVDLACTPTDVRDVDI

For the compound `Cc1nc(Nc2ccc(NC(=S)Nc3ccccc3)cc2)nc2nc(SCc3ccccc3)[nH]c(=O)c12` [Compound 6c, 1-(4-{[7-(Benzylsulfanyl)-4-methyl-5-oxo-5,6-dihydropyrimido[4,5-d]pyrimidin-2-yl]amino}-phenyl)-3-phenylthiourea], the melting point is above 300 °C. In addition, the inhibition at 10 µM in the data set with K-562 is 27.9%. The negative-log IC50 (pIC50) at CDK2/CyclinA was 5.82. Further, the inhibition at 10 µM in the data set with MDA-MB-231/ATCC came out at 23.1%. The compound also showed a pIC50 in data set [1] below 5.00. At CDK4/CyclinD, this compound gave a pIC50 of 5.51. The inhibition at 10 µM with UACC-257 stood at 25.2%. The “Growth Inhibition %” value in the data set on RXF 393 (10^−5M) is recorded as 124.01%. In addition, in the data set on RXF 393, the inhibition at 10 µM was determined as 124%. The inhibition at 10 µM with RPMI-8226 came out at 33%. In the data set with HL-60(TB), the inhibition at 10 µM is 24%. For the same compound, the inhibition at 10 µM with SF-539 turned out to be 36.7%. In the data set on IGROV1, the inhibition at 10 µM stood at 34.3%. Further, in the data set with A549/ATCC, the inhibition at 10 µM was 42.1%.

Compound `Cc1cc(C)nc(NS(=O)(=O)c2ccc(Nc3nc(C)c4c(=O)[nH]c(SCc5ccccc5)nc4n3)cc2)n1` [Compound 6d, 4-{[7-(Benzylsulfanyl)-4-methyl-5-oxo-5,6-dihydropyrimido[4,5-d]pyrimidin-2-yl]amino}-N-(4,6-dimethylpyrimidin-2-yl)benzenesulfonamide] gave a melting point above 300 °C. On CDK2/CyclinA, this compound gave a negative-log IC50 (pIC50) of 5.60. The compound also had a pIC50 in data set [1] of 5.11. In addition, the pIC50 at CDK4/CyclinD is 6.18. In the data set on HOP-92, the inhibition at 10 µM was 27%. The inhibition at 10 µM with A549/ATCC came out at 21.2%. In the data set with MOLT-4, the inhibition at 10 µM amounted to 43.4%.

The compound `O=c1[nH]c(SCc2ccccc2)nc2nc(Nc3ccc(NC(=S)Nc4ccccc4)cc3)nc(-c3ccc(O)cc3O)c12` [Compound 6a, 1-(4-{[7-(Benzylsulfanyl)-4-(2,4-dihydroxyphenyl)-5-oxo-5,6-dihydro-pyrimido[4,5-d]pyrimidin-2-yl]amino}phenyl)-3-phenylthiourea] gave a melting point above 300 °C. For the same compound, the negative logarithm of the IC50 (pIC50) against CDK2/CyclinA is 5.30. The pIC50 in [1] is 5.03. Moreover, on CDK4/CyclinD, the pIC50 was below 5.00 and the “IC50 CDK4/CyclinD” value is recorded as “no activity”. Moreover, the inhibition at 10 µM in the data set on RXF 393 came to 33.8%. Besides, the inhibition at 10 µM with T-47D was found to be 26.9%. Moreover, the inhibition at 10 µM in the data set on HOP-92 stood at 103%.

`O=c1[nH]c(Nc2cccc(Cl)c2)nc2nc(Nc3ccc(NC(=S)Nc4ccccc4)cc3)nc(-c3ccc(O)cc3O)c12` [Compound 7d, 1-[4-({7-[(3-Chlorophenyl)amino]-4-(2,4-dihydroxyphenyl)-5-oxo-5,6-dihydro-pyrimido[4,5-d]pyrimidin-2-yl}amino)phenyl]-3-phenylthiourea]: the melting point was above 300 °C. Further, the inhibition at 10 µM in the data set with UO-31 was 30.7%. Further, the pIC50 on CDK2/CyclinA is below 5.00. In addition, the inhibition at 10 µM with MDA-MB-231/ATCC worked out at 21.4%. This compound showed a negative logarithm of the IC50 (pIC50) in data set [1] below 5.00. Moreover, at CDK4/CyclinD, the pIC50 is 5.16 and the “IC50 CDK4/CyclinD” value is on record as “very poor activity”. For the same compound, the inhibition at 10 µM in the data set with UACC-257 amounted to 79.5%. For the same compound, the inhibition at 10 µM in the data set on RPMI-8226 was 30.4%. Also, the inhibition at 10 µM in the data set with IGROV1 turned out to be 39.7%. In addition, the inhibition at 10 µM in the data set on OVCAR-8 amounted to 26.8%. The inhibition at 10 µM with A549/ATCC was found to be 44.7%.

Broadly, the inhibition is the drop in the measured response relative to a control, in per cent. As a reminder, the pIC50 is −log10 of the IC50, conventionally taken in molar units. A low value points to a large IC50. As a reminder, the melting point is the temperature of the solid-liquid transition.
